The target of one series is T1, NRP-1 (Homo sapiens, UniProt O14786).
T1 construct: purchased R&D Systems, UK 3870-N1-025
T1 sequence (O14786 22-644 isoform O14786-2 limits assumed): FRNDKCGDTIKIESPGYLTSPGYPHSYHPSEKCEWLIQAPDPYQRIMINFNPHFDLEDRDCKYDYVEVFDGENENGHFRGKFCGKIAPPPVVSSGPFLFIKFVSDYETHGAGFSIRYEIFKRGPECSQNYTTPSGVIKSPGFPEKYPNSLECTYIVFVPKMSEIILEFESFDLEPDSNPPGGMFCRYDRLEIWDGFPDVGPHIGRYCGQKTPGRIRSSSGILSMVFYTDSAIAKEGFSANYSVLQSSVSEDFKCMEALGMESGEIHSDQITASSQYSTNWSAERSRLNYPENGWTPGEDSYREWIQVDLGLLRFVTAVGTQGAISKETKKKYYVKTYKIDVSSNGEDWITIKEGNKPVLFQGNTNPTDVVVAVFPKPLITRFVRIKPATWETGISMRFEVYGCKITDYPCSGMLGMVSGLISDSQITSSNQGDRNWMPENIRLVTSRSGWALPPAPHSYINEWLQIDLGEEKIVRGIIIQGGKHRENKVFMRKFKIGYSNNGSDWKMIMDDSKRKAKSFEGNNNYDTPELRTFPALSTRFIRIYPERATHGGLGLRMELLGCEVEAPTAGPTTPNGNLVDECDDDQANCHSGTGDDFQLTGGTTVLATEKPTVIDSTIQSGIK
The series is described as follows: ELISA inhibition of VEGF binding to NRP-1. The note with it: compounds at 10 μM. The protocol: Elisa test was performed covering a 96-well microplate (BD Biosciences, France, cat no 353046) surface with 100 μl of 1×PBS, pH 7.4 with Ca^2+ and Mg^2+, (Lonza, France, cat no 17-513F/12) solution containing 0.2 μg/ml of VEGF-R1 (R&D Systems, UK, cat no 321-FL-050/CF) or 2 μg/ml of NRP-1 (R&D Systems, UK, cat no 3870-N1-025) or NRP-2 (R&D Systems, UK, cat no […]). The plate was sealed and incubated overnight at 4° C. After 3 washes with 200 μl of 1×PBS 0.5% (v/v) Tween 20 (Sigma, France, cat no 34078) (Buffer A), the plate was blocked by adding 200 μl of 1×PBS with 0.5% (w/v) BSA (Eurobio, France, cat no GAUBSA01-65) and agitated at 37° C. for 2 h. After washing five times with Buffer A, 50 μl/well of the compounds of the invention at 10 μM were added for the specific signal and 50 μl/well for the non-specific and max binding signal and incubated at 37° C. for 1 hour, shacking. 50 μl of btVEGF (R&D Systems, UK, cat no NFVEO) at […] for NRP-1/4 μg/ml Heparin (Sigma, USA, cat no H3393-10KU), 300 μg/ml for NRP-2 and 100 μg/ml for VEGF-R1 solution was added to each well; the plate was sealed and incubated at 37° C. for 2 h, shacking. The last incubation was carried out, after five washes with Buffer A, adding 100 μl/well Streptavidin-Horseradish Peroxidase (Amersham, Switzerland, cat no RPN4401) diluted 1:8000 with buffer A. After 1 h shacking at 37° C. under obscurity, the plate was washed 5 times with buffer A and 100 μl of SuperSignal west picochemiluminescent substrate (Interchim, USA cat no 34078) were added. Luminescence was quantified with an EnVision™ 2101 Multilabel reader (Perkin Elmer, USA) and the data analyzed by Wallac Envision manager software. Signal is given as relative light units (RLU). Non-specific binding is defined as the signal measured in the absence of receptor coated on the microplate. The specific binding was calculated as the difference between total binding and non-specific binding. The percentage of inhibition was calculated as following: […]
In general terms: An ELISA detects its analyte on a solid surface through an enzyme-linked reagent.

The next series relates to MDAMB-231 cells. The series is described as follows: Adhesion test (crystal violet), MDA-MB-231. The format is cell-based, Human. The note with it: MDAMB-231, FIGS. 1A-C. The protocol: The crystal violet (hexamethyl pararosaniline chloride) is used as biologic colorant. It enters in the living cells, allowing the visualisation of the dark purple adherent living cells on the bottom of the plate.
After an incubation period of 72 h, the adherent cells were fixed with […] paraformaldehyde
3% for 15 min at room temperature. The medium and non-adherent cells were removed, and the cells were washed extensively with […] PBS (+Ca^2+ and +Mg^2+) (Lonza) and then stained with 50 μl of crystal violet 0.04% for 30 min at room temperature. The cells were washed gently 3 times with 100 μl PBS and were permeabilised with 100 μl triton 2% for 15 min. The microplate was stirred to obtain a homogenous solution and absorbance was quantified at 580 nm by Microplate Manager 5.2.
The percentage of inhibition is calculated as follow: % inhibition=100−[(DOsample/DOcontrol)*100].

The next series has as its system MDA-MB-231. The experiment in a line: WST-1 proliferation assay, MDA-MB-231. Conditions: MDAMB-231 cell survival, FIGS. 1A-C. The format is cell-based, Human. As to the method:
(§1) Cells were grown as subconfluent monolayer and cultured in 75 cm^2 flasks at 37° C., 5% CO2 in a humidified atmosphere, and medium was changed every two days. Only cells from passages 2-6 were used for the experiments.
(§2) All cells were detached with 3 ml of trypsin/EDTA (chelator of calcium and magnesium ions) (Lonza), incubated for 5 min at 37° C., and examined using a microscope to ensure that the cells were detached and floating. […] The supernatant was removed and the cell pellet resuspended in […] of culture medium. 50 μl of this solution were transferred in 20 μl of isotonic solution and the cells were counted by count cellular (Beckman Coulter).
(§3) The cell proliferation WST-1 assay is a colorimetric assay for the quantification of cell proliferation and viability, based on the enzymatic cleavage of the tetrazolium salt WST-1 added to the culture medium, to a water soluble colored formazan dye, detected by absorbance at 450 nm, by mitochondrial succinate-tetrazolium reductase in viable cells. An augmentation in enzyme activity will then lead to an increase in the amount of formazan dye formed, which directly correlates to the number of metabolically active cells in the culture.
(§4) After an incubation period of 72 h, at day 4, were prepared the […] medium with reagent WST-1 […] ([…]). The medium was removed from the 96 microplate and 200 μl of solution WST-1/medium were added for each well. The cells were incubated at 37° C. in a humidified atmosphere of 5% CO2 for 1 h 30 and the absorbance at 450-655 nm was measured by Microplate Manager 5.2 (Bio-Rad).
(In general: Tetrazolium dyes change colour on reduction, which living cells bring about.)

Another series deals with HUVEC cells. The experiment in a line: WST-1 proliferation assay, HUVEC. The format is cell-based. Conditions: FIG. 1 cell survival. The protocol:
as §1, §2, §3, §4

Turning to `O=C(NC(=S)Nc1cccc(-c2nc3ccccc3[nH]2)c1)c1ccc2c(c1)OCO2` [Compound 3, N-[3-(1H-benzimidazol-2-yl)phenyl]-N′-(1,3-benzodioxol-5-ylcarbonyl)thiourea], the inhibition (as a rule, the percentage by which the read-out fell short of the control) at 10 µM on NRP-1 was 46 ± 3%. Further, in the series on MDAMB-231 cells, the “inhibition of adhesion of cancer cells in culture” value is on record as “inhibited the adhesion”. The “cytotoxicity for cancer cells in vitro” value in the series on MDA-MB-231 was “cytotoxic”. Moreover, the “cytotoxicity for endothelial cell lines (HUVEC cells) in culture” value in the series with HUVEC cells is given as “cytotoxic”.
